# Measured values published in ChEMBL document CHEMBL4411322 (J Med Chem, 2019).
# Non-standard residues stand in square brackets, D forms with d. Residues, ends and D or L forms follow the SMILES beside them. dNMeF = CN[C@H](Cc1ccccc1)C(=O)O
# Key:
# Integrin alpha-V/beta-8 = Integrin alpha-V/beta-8 (Homo sapiens, UniProt P06756+P26012); experiment: Inhibition of LAP binding to human integrin alphavbeta8 receptor after 1 hr by solid-phase binding assay; assay type: protein-complex assay; settings: read-out: IC50
# Integrin alpha-V/beta-6 = Integrin alpha-V/beta-6 (Homo sapiens, UniProt P06756+P18564); experiment: Inhibition of LAP binding to human integrin alphavbeta6 receptor after 1 hr by solid-phase binding assay; assay type: protein-complex assay
# Homo sapiens = species: Homo sapiens; experiment: Selectivity ratio of IC50 for human integrin alphavbeta6 receptor to IC50 for human integrin alphavbeta8 receptor
# Sequence of Integrin alpha-V/beta-8 (P06756 31-889 limits assumed): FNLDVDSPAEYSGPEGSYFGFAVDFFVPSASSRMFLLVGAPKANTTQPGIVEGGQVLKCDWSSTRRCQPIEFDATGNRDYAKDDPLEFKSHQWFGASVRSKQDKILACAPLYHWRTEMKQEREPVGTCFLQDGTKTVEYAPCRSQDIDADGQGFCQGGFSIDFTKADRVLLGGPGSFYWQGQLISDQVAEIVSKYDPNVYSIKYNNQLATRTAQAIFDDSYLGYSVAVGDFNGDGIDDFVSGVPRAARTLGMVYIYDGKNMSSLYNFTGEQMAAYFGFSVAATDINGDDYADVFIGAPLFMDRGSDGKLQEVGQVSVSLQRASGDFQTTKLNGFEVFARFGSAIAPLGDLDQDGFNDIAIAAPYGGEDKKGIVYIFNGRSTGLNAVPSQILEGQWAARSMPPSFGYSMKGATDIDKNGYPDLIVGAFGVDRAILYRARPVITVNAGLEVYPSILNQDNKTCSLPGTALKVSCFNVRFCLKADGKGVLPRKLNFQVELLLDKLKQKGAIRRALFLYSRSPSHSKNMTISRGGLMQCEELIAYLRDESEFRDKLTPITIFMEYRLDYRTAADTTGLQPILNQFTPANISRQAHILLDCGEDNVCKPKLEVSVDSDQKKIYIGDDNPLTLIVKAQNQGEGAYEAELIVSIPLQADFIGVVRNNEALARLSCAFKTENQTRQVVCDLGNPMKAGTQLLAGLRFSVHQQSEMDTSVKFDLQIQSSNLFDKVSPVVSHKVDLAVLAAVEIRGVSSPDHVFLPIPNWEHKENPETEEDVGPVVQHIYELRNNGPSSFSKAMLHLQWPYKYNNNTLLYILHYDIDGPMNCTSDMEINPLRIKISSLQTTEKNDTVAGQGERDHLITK
# Sequence of Integrin alpha-V/beta-8 (P06756 891-1048 limits assumed): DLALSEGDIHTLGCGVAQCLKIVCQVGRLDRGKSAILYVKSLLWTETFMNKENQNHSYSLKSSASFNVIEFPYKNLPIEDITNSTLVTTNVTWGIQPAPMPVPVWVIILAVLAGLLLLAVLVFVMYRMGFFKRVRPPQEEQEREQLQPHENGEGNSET
# Sequence of Integrin alpha-V/beta-8 (P26012 43-769 limits assumed): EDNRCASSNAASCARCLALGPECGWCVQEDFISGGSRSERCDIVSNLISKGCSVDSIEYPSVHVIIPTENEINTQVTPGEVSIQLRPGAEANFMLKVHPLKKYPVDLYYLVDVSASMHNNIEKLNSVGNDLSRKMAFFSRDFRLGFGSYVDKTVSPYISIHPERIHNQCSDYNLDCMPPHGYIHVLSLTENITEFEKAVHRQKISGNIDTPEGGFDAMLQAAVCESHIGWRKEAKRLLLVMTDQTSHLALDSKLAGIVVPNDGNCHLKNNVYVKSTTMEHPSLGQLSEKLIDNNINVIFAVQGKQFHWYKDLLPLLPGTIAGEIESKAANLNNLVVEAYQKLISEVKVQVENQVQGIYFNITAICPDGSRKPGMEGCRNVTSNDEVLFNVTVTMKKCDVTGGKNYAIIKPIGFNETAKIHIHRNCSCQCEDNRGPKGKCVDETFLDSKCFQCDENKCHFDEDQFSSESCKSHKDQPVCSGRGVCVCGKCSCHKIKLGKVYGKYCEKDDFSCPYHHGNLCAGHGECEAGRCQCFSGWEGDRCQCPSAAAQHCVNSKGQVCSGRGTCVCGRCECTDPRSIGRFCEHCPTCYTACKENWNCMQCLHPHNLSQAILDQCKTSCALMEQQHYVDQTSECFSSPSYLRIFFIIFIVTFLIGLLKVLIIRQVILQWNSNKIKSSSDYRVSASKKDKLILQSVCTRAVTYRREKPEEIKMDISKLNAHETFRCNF
# Sequence of Integrin alpha-V/beta-6 (P06756 31-889 limits assumed): as the sequence (P06756 31-889 limits assumed) above
# Sequence of Integrin alpha-V/beta-6 (P06756 891-1048 limits assumed): as the sequence (P06756 891-1048 limits assumed) above
# Sequence of Integrin alpha-V/beta-6 (P18564 22-788 limits assumed): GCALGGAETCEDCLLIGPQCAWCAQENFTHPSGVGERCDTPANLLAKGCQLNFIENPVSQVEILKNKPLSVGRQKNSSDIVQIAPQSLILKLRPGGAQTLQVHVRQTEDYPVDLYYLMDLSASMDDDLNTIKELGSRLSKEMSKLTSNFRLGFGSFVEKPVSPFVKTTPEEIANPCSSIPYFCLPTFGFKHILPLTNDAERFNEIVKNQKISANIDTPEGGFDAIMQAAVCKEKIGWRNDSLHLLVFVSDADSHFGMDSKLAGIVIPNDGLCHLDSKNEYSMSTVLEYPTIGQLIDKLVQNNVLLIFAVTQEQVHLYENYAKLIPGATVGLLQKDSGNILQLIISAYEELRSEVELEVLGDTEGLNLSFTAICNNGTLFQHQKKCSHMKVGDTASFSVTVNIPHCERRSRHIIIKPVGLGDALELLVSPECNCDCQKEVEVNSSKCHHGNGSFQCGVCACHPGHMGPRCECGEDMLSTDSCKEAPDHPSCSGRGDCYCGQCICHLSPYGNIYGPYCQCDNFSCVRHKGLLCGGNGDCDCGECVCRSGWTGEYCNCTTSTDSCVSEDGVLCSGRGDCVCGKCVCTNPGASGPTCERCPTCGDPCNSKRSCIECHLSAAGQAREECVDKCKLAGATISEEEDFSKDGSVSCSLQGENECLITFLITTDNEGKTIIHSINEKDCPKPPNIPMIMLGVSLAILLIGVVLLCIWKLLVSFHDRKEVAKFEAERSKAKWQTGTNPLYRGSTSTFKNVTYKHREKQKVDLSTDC
compound,measurement,setting,value
CC(C)C[C@@H]1NC(=O)[C@H](C)NC(=O)[C@@H]2CCCN2C(=O)[C@H]2CCCN2C(=O)[C@H](CC(C)C)NC(=O)[C@H](CC(=O)O)NC(=O)CNC(=O)[C@H](CCCNC(=N)N)NC1=O (cyclo(RGDL[dP]PAL)),IC50,Integrin alpha-V/beta-8,0.00131 µM
same,IC50,Integrin alpha-V/beta-6; read-out: IC50,0.0318 µM
same,Ratio IC50,Homo sapiens,24
CC(C)C[C@@H]1NC(=O)[C@H](CC(=O)O)NC(=O)CNC(=O)[C@H](CCCNC(=N)N)NC(=O)[C@H](CCCCN)NC(=O)[C@H](C)NC(=O)[C@@H]2CCCN2C(=O)[C@H]2CCCN2C1=O,IC50,Integrin alpha-V/beta-8,0.00732 µM
same,IC50,Integrin alpha-V/beta-6; read-out: IC50,0.0407 µM
same,Ratio IC50,Homo sapiens,5.6
CC(C)C[C@@H]1NC(=O)[C@H](C)NC(=O)[C@H](C)NC(=O)[C@H](CC(C)C)NC(=O)[C@H](CC(=O)O)NC(=O)[C@H]([C@@H](C)O)NC(=O)[C@H](CCCNC(=N)N)NC(=O)[C@@H]2CCCN2C(=O)[C@H]2CCCN2C(=O)[C@H](C)NC1=O,IC50,Integrin alpha-V/beta-8,3.08 µM
same,IC50,Integrin alpha-V/beta-6; read-out: IC50,1.55 µM
C[C@@H]1NC(=O)[C@@H]2CCCN2C(=O)[C@H]2CCCN2C(=O)[C@H](CCCCN)NC(=O)[C@H](CC(=O)O)NC(=O)CNC(=O)[C@H](CCCNC(=N)N)NC(=O)[C@H](Cc2ccccc2)NC1=O,IC50,Integrin alpha-V/beta-8,4.34 µM
same,IC50,Integrin alpha-V/beta-6; read-out: IC50,0.826 µM
CC(C)C[C@@H]1NC(=O)[C@H](C)NC(=O)[C@H](CC(C)C)N(C)C(=O)[C@H]2CCCN2C(=O)[C@H](CC(C)C)NC(=O)[C@H](CC(=O)O)NC(=O)CNC(=O)[C@H](CCCNC(=N)N)NC1=O,IC50,Integrin alpha-V/beta-8,0.034 µM
same,IC50,Integrin alpha-V/beta-6; read-out: IC50,0.18 µM
same,Ratio IC50,Homo sapiens,5.3
C[C@@H]1NC(=O)[C@@H]2CCCN2C(=O)[C@H]2CCCN2C(=O)[C@H](Cc2ccccc2)NC(=O)[C@H](CC(=O)O)NC(=O)CNC(=O)[C@H](CCCNC(=N)N)NC(=O)[C@H](Cc2ccccc2)NC1=O,IC50,Integrin alpha-V/beta-8,1.15 µM
same,IC50,Integrin alpha-V/beta-6; read-out: IC50,0.324 µM
CC(C)C[C@@H]1NC(=O)[C@H](CO)NC(=O)[C@@H]2CCCN2C(=O)[C@H]2CCCN2C(=O)[C@H](CC(C)C)NC(=O)[C@H](CC(=O)O)NC(=O)CNC(=O)[C@H](CCCNC(=N)N)NC1=O (cyclo(RGDL[dP]PSL)),Ratio IC50,Homo sapiens,15
CC(C)C[C@@H]1NC(=O)[C@H](C)NC(=O)[C@@H]2CCCN2C(=O)[C@@H](Cc2ccccc2)N(C)C(=O)[C@H](CC(C)C)NC(=O)[C@H](CC(=O)O)NC(=O)CNC(=O)[C@H](CCCNC(=N)N)NC1=O (cyclo(RGDL[dNMeF]PAL)),Ratio IC50,Homo sapiens,15
CC(C)C[C@@H]1NC(=O)[C@H](C)NC(=O)[C@@H]2CCCN2C(=O)[C@H]2CCCN2C(=O)[C@H](C)NC(=O)[C@H](CC(C)C)NC(=O)[C@H](CC(=O)O)NC(=O)CNC(=O)[C@H](CCCNC(=N)N)NC(=O)[C@H](C)NC1=O,IC50,Integrin alpha-V/beta-8,1.11 µM
same,IC50,Integrin alpha-V/beta-6; read-out: IC50,0.0699 µM
CC(C)C[C@@H]1NC(=O)[C@H](C)NC(=O)[C@@H]2CCCN2C(=O)[C@@H](CC(C)C)N(C)C(=O)[C@H](CC(C)C)NC(=O)[C@H](CC(=O)O)NC(=O)CNC(=O)[C@H](CCCNC(=N)N)NC1=O,IC50,Integrin alpha-V/beta-8,0.015 µM
same,IC50,Integrin alpha-V/beta-6; read-out: IC50,0.095 µM
same,Ratio IC50,Homo sapiens,6.3
CC(C)C[C@@H]1NC(=O)[C@H](C)NC(=O)[C@@H]2CCCN2C(=O)[C@H]2CCCN2C(=O)[C@H](C)NC(=O)[C@H](CC(C)C)NC(=O)[C@H](CC(=O)O)NC(=O)[C@H]([C@@H](C)O)NC(=O)[C@H](CCCNC(=N)N)NC(=O)[C@H](C)NC1=O,IC50,Integrin alpha-V/beta-8,8.41 µM
same,IC50,Integrin alpha-V/beta-6; read-out: IC50,0.495 µM
CC(C)C[C@@H]1NC(=O)[C@H](CC(=O)O)NC(=O)CNC(=O)[C@H](CCCNC(=N)N)NC(=O)[C@H](CC(=O)O)NC(=O)[C@H](C)NC(=O)[C@@H]2CCCN2C(=O)[C@H]2CCCN2C1=O,IC50,Integrin alpha-V/beta-8,0.0063 µM
same,IC50,Integrin alpha-V/beta-6; read-out: IC50,0.0759 µM
same,Ratio IC50,Homo sapiens,12
CC(C)C[C@@H]1NC(=O)[C@H](CC(=O)O)NC(=O)CNC(=O)[C@H](CCCNC(=N)N)NC(=O)CNC(=O)[C@H](C)NC(=O)[C@@H]2CCCN2C(=O)[C@H]2CCCN2C1=O,IC50,Integrin alpha-V/beta-8,0.0159 µM
same,IC50,Integrin alpha-V/beta-6; read-out: IC50,0.0424 µM
same,Ratio IC50,Homo sapiens,2.7
CC(C)C[C@@H]1NC(=O)[C@H](CC(=O)O)NC(=O)CNC(=O)[C@H](CCCNC(=N)N)NC(=O)[C@@H](c2ccccc2)NC(=O)[C@H](C)NC(=O)[C@@H]2CCCN2C(=O)[C@H]2CCCN2C1=O,IC50,Integrin alpha-V/beta-8,0.0903 µM
same,IC50,Integrin alpha-V/beta-6; read-out: IC50,0.0484 µM
CC(C)[C@@H]1NC(=O)[C@H](CC(=O)O)NC(=O)CNC(=O)[C@H](CCCNC(=N)N)NC(=O)[C@H](Cc2ccccc2)NC(=O)[C@H](C)NC(=O)[C@@H]2CCCN2C(=O)[C@H]2CCCN2C1=O,IC50,Integrin alpha-V/beta-8,0.467 µM
same,IC50,Integrin alpha-V/beta-6,Not Active
CC(C)C[C@@H]1NC(=O)[C@H](C)NC(=O)[C@H](C)NC(=O)[C@H](CC(C)C)NC(=O)[C@H](CC(=O)O)NC(=O)CNC(=O)[C@H](CCCNC(=N)N)NC(=O)[C@@H]2CCCN2C(=O)[C@H]2CCCN2C(=O)[C@H](C)NC1=O,IC50,Integrin alpha-V/beta-8,0.614 µM
same,IC50,Integrin alpha-V/beta-6; read-out: IC50,0.0145 µM
CC(C)C[C@@H]1NC(=O)[C@H](CC(=O)O)NC(=O)CNC(=O)[C@H](CCCNC(=N)N)NC(=O)[C@H](C)NC(=O)[C@@H]2CCCN2C(=O)[C@H]2CCCN2C(=O)[C@H](CC(C)C)NC(=O)[C@H](C)NC(=O)[C@H](C)NC1=O (cyclo(RGDLAAL[dP]PA)),IC50,Integrin alpha-V/beta-8,0.0886 µM
CC(C)C[C@@H]1NC(=O)[C@H](CC(=O)O)NC(=O)CNC(=O)[C@H](CCCNC(=N)N)NC(=O)[C@H](C)NC(=O)[C@@H]2CCCN2C(=O)[C@H]2CCCN2C1=O (cyclo(ARGDL[dP]P)),IC50,Integrin alpha-V/beta-8,0.197 µM
same,Ratio IC50,Homo sapiens,2.1
